Data published in patent US11992469B2, “Targeting mitochondrial dynamics by mitochondrial fusion promoter M1 as a treatment strategy for nervous system injury” (City University of Hong Kong, priority 2020, dated 2024).

How the values were obtained:
[1] = tested on: optic nerve crush injury (CNS injury model); assay: Axon regeneration (CTB-555-labelled axons) after optic nerve crush injury; format: in vivo, C57BL/6 mice
[2] = tested on: sciatic nerve crush injury (peripheral nerve injury model); assay: Sciatic nerve pinch test after sciatic nerve crush injury; format: in vivo, C57BL/6 mice; conditions: 3 days after injury
Protocol: (§1) FIG. 2 depicts an experimental paradigm for assessing the growth-promoting effects of mitochondrial fusion promoter M1 after peripheral nerve injury. Sciatic nerve crush injury was performed on adult male C57BL/6 mice. Immediately after crush, 20-60 μg of mitochondrial fusion promoter M1 was directly applied on top of the crushed site, followed by a total of 6 administrations (i.e. morning and evening administration with at least 8 hours apart). Sciatic nerve pinch test and axon quantification were performed on day 3 post-injury.
FIG. 3 depicts data showing that mitochondrial fusion promoter M1 accelerates in vivo axonal regrowth after sciatic nerve crush injury in adult mice. […] Sciatic nerve pinch test and axon quantification were performed 3 days after injury. […]
(§2) We first confirmed the growth-promoting effects of mitochondrial fusion promoter M1 using sciatic nerve pinch test. The results from sciatic nerve pinch test were subsequently verified by quantifications of GAP-43-positive regenerating axons 3 days after sciatic nerve crush injury.
Following the completion of dosing paradigm of M1, sciatic nerve pinch test was performed on the ipsilateral nerves 3 days after sciatic nerve crush injury. […] The distance (in mm) was recorded from the crushed site to the most distal point of the nerve where initial withdrawal response was generated after pinching (FIG. 3A).

[3] = tested on: MEF Mfn1−/− or Mfn2−/− cultures; conditions: Mfn1 or Mfn2 knockout; cited from earlier work
[4] = tested on: optic nerve crush injury (CNS injury model); assay: Optogenetic stimulation of RGCs and local field potential (LFP) recordings in superior colliculus after optic nerve crush; format: in vivo, mice; conditions: for eye-evoked RMS LFP amplitude in superior colliculus: six weeks after optic nerve crush
Protocol: Two weeks before LFP recordings, AAV overexpressing a fusion of channelrhodopsin 2 and mCherry was injected into the injured eye of the mice. […] Blue lines indicated optical stimulation in the injured eye. (B) Eye-evoked root-mean-square (RMS) LFP amplitudes were automatically determined using Spike2 software with customized MATLAB program. Administration of M1 markedly elevated the eye-evoked RMS LFP amplitudes compared with vehicle-treated controls. Combination of phosphatase and tensin homolog (Pten) deletion and M1 treatment further increased the RMS LFP amplitudes after optical stimulations of injured RGCs. Mean±SEM (n=4-5 per group). *P<0.05, one-way ANOVA with Bonferroni post-hoc test.
To record evoked LFP in SC, mice received intravitreal injection of AAV-ChR2-mCherry […]. Six weeks after optic nerve crush injury, we stimulated the injured RGCs by placing an optical fiber with blue laser at 473 nm illuminated at the periphery of the left eye (injured). Evoked LFPs in response to the optical stimuli from ChR2-overexpressing RGCs were recorded in the SC. There were virtually no LFP amplitudes that could be detected from the vehicle-treated mice (FIG. 7A), which was consistent with the histology results. […] Treating the mice with M1 and Pten deletion restored almost 25% of the maximal LFP amplitude compared with uninjured mice.
To optically stimulate the RGCs in vivo, AAV expressing a fusion of channelrhodopsin-2 and mCherry (AAV-ChR2-mCherry) at viral titre of 1×10^13 vg/ml was injected intravitreally into both eyes two weeks before optogenetics experiments. For intravitreal injection, a micropipette was gently inserted into the peripheral retina of the eye, just behind the ora serrata, placed with an angle to avoid damages to the lens. […]
The data recorded from the system was used as digital input signals for synchronization of the optogenetics setup. Data were analyzed offline using spike2 software (Version 8) and customized MATLAB program. Root-mean-square (RMS) amplitudes after optical stimulation was calculated (FIG. 7).

[5] = tested on: retinal ganglion cells (RGCs); assay: Retinal ganglion cell (RGC) survival after optic nerve crush injury (RBPMS staining); format: in vivo, C57BL/6 mice
[6] = tested on: dopaminergic neuron-like SH-SY5Y cells; conditions: 1-methyl-4-phenyl-pyridinium (MPP+); cited from earlier work
[7] = tested on: adult dorsal root ganglion (DRG) neurons; assay: Neurite outgrowth assay in primary cultures of axotomized adult DRG neurons; format: cell-based, C57BL/6 mice; conditions: 2.5 μM, 17 hours
Protocol: FIG. 1 depicts data showing that M1 increases the length of regenerating axons which is directly proportional to the size of mitochondria in DRG neurons. Wildtype adult DRG neurons were treated with M1 at a concentration of 2.5 μM, and 0.1% DMSO was used as vehicle controls. After 17 hours of incubation, cultures were fixed and immunostained with anti-βIII-tubulin antibodies for neurite outgrowth assay. […] Scale bar: 500 μm. […] More than 80 DRG neurons were quantified from each treatment group. Mean±SEM of triplicates. ***P<0.001; Student's t-test. n.s., not significant. CTL, control.
The current study aimed to investigate the therapeutic potential of mitochondrial fusion promoter M1 for treating patients with nerve injuries. First, we examined if mitochondrial fusion promoter M1 could enhance the intrinsic growth capacity of adult neurons, a critical determinant for successful axon regeneration after nerve injuries. We used primary cultures of axotomized dorsal root ganglion (DRG) neurons as an in vitro model to assess the extent of neurite outgrowth after treating the neurons with mitochondrial fusion promoter M1. Primary cultures of DRG neurons were prepared from adult C57BL/6 mice (8-12 weeks old). The DRG neurons were first dissected out, digested with collagenase/dispase II solution (Roche Diagnostics), trypsinized and dissociated mechanically by three flame-polish Pasteur pipettes with different diameters. […]
For neurite outgrowth assay, 30 non-overlapping images were captured at 10× magnifications using Nikon Ni-E epifluorescence microscope equipped with a motorized stage. Total neurite length of each neuron from each condition were automatically measured using WIS-NeuroMath software (Weizmann Institute of Science). At least 250 neurons were quantified from each condition to obtain the average total neurite length. […]

[8] = tested on: sciatic nerve crush injury (peripheral nerve injury model); assay: Quantification of GAP-43-positive regenerating axons after sciatic nerve crush injury; format: in vivo, C57BL/6 mice; conditions: 3 days after injury; 5 mm distal to crushed site
Protocol: as §1
FIG. 3 depicts data showing that mitochondrial fusion promoter M1 accelerates in vivo axonal regrowth after sciatic nerve crush injury in adult mice. Sciatic nerve crush injury was performed on adult C57BL/6 mice (8-12 weeks old). A total of 6 administrations of mitochondrial fusion promoter M1 was directly applied to the crushed site for 3 consecutive days. Sciatic nerve pinch test and axon quantification were performed 3 days after injury. […]
as §2

## CC(=NNc1c(Cl)cc(Cl)cc1Cl)c1cc(Cl)ccc1O [M1]
[1]; day 14 post-injury, 1 μg intravitreal at days 0 and 7
  axon regeneration after optic nerve crush: robust axon regeneration
[1]; day 28 post-injury
  distance reached by regenerating axons: reach the optic chiasm
[1]; day 28 post-injury, 1 μg intravitreal at days 0, 7, 14 and 21
  axon regeneration after optic nerve crush: robust axon regeneration
[1]; six weeks after optic nerve crush injury, intravitreal injection
  distance reached by regenerating axons: reaching superior colliculus
[2]
  dose of maximal effect on distal extent of axonal regrowth (pinch test): 20 µg/day
[2]; 20-60 μg applied to crushed site, 6 administrations
  increase in most distal axonal regrowth (sciatic nerve pinch test): 55%
[3]
  restoration of mitochondrial fragmentation: completely restored
[4]; M1 and Pten deletion
  restored share of maximal LFP amplitude compared with uninjured mice: ~25%
[4]; M1-treated mice
  eye-evoked RMS LFP amplitude in superior colliculus: 59.82±3.6 μV
[4]; Pten-knockout (Pten-KO) and M1-treated mice
  eye-evoked RMS LFP amplitude in superior colliculus: 88.36±3.13 μV
[5]; 14 days after optic nerve crush injury
  RGC survival vs vehicle-treated controls: more retinal ganglion cells (RGCs) were survived
[5]; 28 days after optic nerve crush injury
  RGC survival vs vehicle-treated controls: more retinal ganglion cells (RGCs) were survived
[6]
  protection from MPP+-induced neurotoxicity: protected
[7]
  cell survival of DRG neurons: no cell survival effect
  mitochondrial size in DRG neurons (distal axons): increase in mitochondrial size
[7]; vs 0.1% DMSO vehicle
  increase in neurite outgrowth from adult DRG neurons: 49%
[8]
  increase in number of GAP-43-positive regenerating axons vs vehicle controls: 2 fold
